Measurements published in patent US20220096650A1 (Glaxosmithkline Intellectual Property Development Limited, priority 2019, published 2022).

How the values were obtained:
Dendritic cells = experiment: Co-culture of immature dendritic cells with BCMA ADC treated NCI-H929 cells, maturation markers by flow cytometry; format: cell-based, human
Description: The process of immunogenic cell death can induce the production of danger molecules that lead to the activation of dendritic cells (see FIG. 1A-ICD is a special type of apoptosis often associated with the cellular release of ATP and HMGB1, and exposure of CRT at the cellular membrane. ICD induces an immune response through engagement of the antigen presentation process by dendritic cells (DCs)). […] Anti-BCMA-MMAF induced ATP release, HMGB1 release and CRT exposure only in NCI-H929, a BCMA positive MM cell line). To investigate the effect of NCI-H929 cell killing by BCMA ADC on the activation of dendritic cells, co-culture experiments were carried out with BCMA ADC treated NCI-H929 cells and immature dendritic cells (iDCs) differentiated from human monocytes in vitro with GM-CSF/IL-4 treatment. A number of dendritic cell maturation markers as well as IL-10 and IL-12p70, two major cytokines secreted by dendritic cells upon activation, were monitored in this process to assess the effect of BCMA ADC induced cell death on dendritic cell activation. Fresh, whole Human blood was obtained from three healthy donors from the Upper Providence Blood Donation Unit with syringes coated in liquid sodium heparin ([…] 10 IU/mL final concentration). Monocytes were isolated from fresh, whole human blood using the RosetteSep Monocyte Enrichment kit (Cat. #15068) and were assessed for expression of cell surface CD14 (BD Bioscience Cat. #562698) using flow cytometry. […] All cells were counted at the initiation of the co-culture and diluted with X-Vivo-15 media to a concentration of 7.5×10^5 cells/mL. […] Data for the secreted IL-10 and IL-12p70 from supernatants in the co-culture assays w analyzed in MSD Discovery Workbench v4.0.12. […] Marker expression was measured in (a) untreated (no BCMA ADC) Dendritic cells alone and (b-f) Dendritic cells that were co-cultured with (b) untreated (no BCMA ADC), (c) IgG Control (10 μg/mL), (d) 0.1, (e) 1 and (f) 10 μg/mL BCMA ADC treated (48 hours) NCI-H929 cells. […]

[1] = tested on: CD4 and CD8 cells in PBMC; experiment: IFNγ and IL-4 production by T cells upon anti-CD3/anti-CD28 stimulation in PBMC; format: cell-based, human; details: 48 and 72 hours
Method: This study was repeated two times (n=2) with blood from two different donors. 100 μL PBMCs (1×10^6 cells/mL) in RPMI-1640 with 10% FBS were added into anti-CD3 antibody coated wells with or without soluble 0.5 μg/mL anti-CD28 antibody. […] Three technical replicates were included for each assay condition. At the end of the study, cells were transferred, washed, stained and analyzed by flow cytometry as described in section 3.1. For intracellular staining, cells were fixed by cytofix buffer (BD Biosciences, Catalog #554655) at room temperature for 20 minutes and permeablized by perm/wash buffer (BD Biosciences, catalog #554723) at room temperature for 30 minutes before staining with antibodies or isotype controls.
The raw percentage and MFI data for each marker at each concentration of BCMA ADC was compared to the corresponding IgG control in the statistical analysis. To account for the variability of the different blood donors, a linear mixed effect model was used to analyze the data. […]
For data reporting, the average percentage or average MFI value among three technical replicates was generated at each BCMA ADC concentration and the % difference values were calculated as: % difference=(Avg 916−Avg IgG)*100/Avg IgG, where Avg 916 and Avg IgG represent the average values of the BCMA ADC treatment group and the IgG control group, respectively. […]

[2] = three healthy donors, 24 hour co-culture, 0.1, 1, 10 μg/mL BCMA ADC

GSK2857916
effect of killing of NCI-H929 cells on dendritic cells (Dendritic cells; 24 hour co-culture 1:1 with NCI-H929 cells treated 48 hours): stimulatory effect on dendritic cells | CD40 cell surface expression on CD11c+ Dendritic cells (Dendritic cells; [2]): increased | CD83 cell surface expression on HLA-DR+ Dendritic cells (Dendritic cells; [2]): increased | IFNγ production [1]: no significant effect | IL-4 production [1]: no significant effect
